According to patent EP0070186B1, “Biologically active peptides” (CELLTECH LIMITED, priority 1981, dated 1985):

Assays:
[1] = literature (Gudmundson et al. 1966); cited from earlier work
female Wistar rats = assay: randomized bioassay, effect on plasma calcium after tail vein injection (Example 2); assay type: in vivo
Method: After preliminary experiments had shown that the time courses of the effects of PDN 21 and human calcitonin (hCT) on plasma calcium were similar, peptide in acetate buffer was injected into the tail vein of female Wistar rats (mean wt 45 g, range 43―48, Oxfordshire Laboratory Animal Colonies (1976) Ltd.) and blood was taken from the aorta after 30 min in a randomized bioassay (Macintyre, I. Galante, L. S. & Hillyard, C. J. in Handbuch der inneren MedizinVllIA(eds) Kuhlen- cordt, F. & Bartelheimer, H. 623-634 (Springer-Verlag, Heidelberg, 1980)). Plasma calcium was measured colormetrically by the method of (Gindler, E. M. & King, J. D. Amer. J.Clin. Path. 58, 376―382 (1972)), and the values confirmed by atomic absorption spectrophotometry. The results are shown graphically in Figure 3. Each point is the mean from three rats 0 PDN-21; A hCT (WHO 1st International Reference Preparation of Calcitonin Hormone for Bioassay, 70/234 supplied by the National Institute for Biological Standards and Control); DhCT+PDN-21 (800 ng PDN 21 was injected with each dose of calcitonin). […] Smoothed curves were fitted to the data by eye. […] Potencies were calculated in terms of hCT over the dose ranges where the log dose response is linear, yielding values of 0.017 milliunits hCT equivalent/ng PDN-21 and 5.11 milliunits hCT equivalent/milliunit hCT in the hCT+PDN-21 group. […]

Substance | effect on plasma phosphate [1] | enhancement of the potency of hCT (female Wistar rats; in the presence of a maximal dose of PDN-21, plasma calcium in the rat) | dose giving 50% response (ED50), plasma calcium (female Wistar rats; tail vein injection, blood after 30 min, probit transformation)
calcitonin | lowers |  | 
human calcitonin [hCT] |  | five-fold | 0.71 MRC milliunits
